Laboratory results as given in patent US20250059231A1, “Protease inhibitors” (priority 2021, published 2025).
Where a SMILES comes first, the peptide text is derived from it. [ ]: non-standard residue; d: D form. The star is where a group is joined. Palmitoyl = CCCCCCCCCCCCCCCC(=O)*

tested on: West Nile virus; assay: not given; conditions: not given

For `CCCCCCCCCCCCCCCC(=O)N[C@@H](CCCCN)C(=O)N[C@@H](C)C(=O)N[C@@H](C)C(=O)N[C@@H](CCCCN)C(=O)C(N)=O` [compound 9], which EC50 is on record?
The EC50 was at most 25 µM.

Which EC50 does the source give for `CCCCCCCCCCCCCCCC(=O)N[C@@H](CCCCN)C(=O)N1CCC[C@H]1C(=O)N[C@@H](C)C(=O)N[C@@H](CCCCN)C(=O)C(N)=O` [compound 10] here?
The EC50 was at most 25 µM.

For `CCCCCCCCCCCCCCCC(=O)N[C@H](CCCNC(=N)N)C(=O)N[C@@H](CCC(N)=O)C(=O)N[C@@H](Cc1ccccc1)C(N)=O` [compound 44] (Palmitoyl-[dR]-Gln-Phe-NH2), which EC50 is on record?
Its EC50 is at most 25 µM.

tested on: ZIKV; assay: not given; conditions: not given

How did the EC50 turn out when `CCCCCCCCCCCCCCCC(=O)N[C@H](CCCNC(=N)N)C(=O)N[C@@H](CCC(N)=O)C(=O)N[C@@H](Cc1ccccc1)C(N)=O` [compound 44] (Palmitoyl-[dR]-Gln-Phe-NH2) was run?
Its EC50 is at most 10 µM.

target: T1, DENV protease (Dengue virus type 2, UniProt P29990); assay: biochemical; conditions: at 50 μM; read-out: inhibition of DENV
T1 construct: The virus-encoded dengue protease comprises the amino-terminal 180 amino acids of NS3 (NS3pro) of the polyprotein
Summary of the method: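 DENV protease (100 nM) was pre-incubated 15 min with inhibitors in 50 mM Tris-HCl pH 9.0, 10% ethylene glycol, 0.0016% Brij 58. FRET substrate (50 μM final) started the reaction, monitored 15 min as RFU/s slope. IC50 came from triplicate means versus concentration.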

T1 sequence (P29990 1398-1437): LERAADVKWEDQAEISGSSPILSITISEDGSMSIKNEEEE
T1 sequence (P29990 1476-1653): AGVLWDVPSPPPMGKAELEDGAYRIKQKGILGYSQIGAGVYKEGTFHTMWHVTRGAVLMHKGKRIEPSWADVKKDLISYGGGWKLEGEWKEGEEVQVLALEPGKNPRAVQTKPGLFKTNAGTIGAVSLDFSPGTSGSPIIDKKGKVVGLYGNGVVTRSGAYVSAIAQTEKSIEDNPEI

With `CCCCCCCCCCCCCCCC(=O)N[C@@H](CCCCN)C(=O)N[C@@H](C)C(=O)N[C@@H](C)C(=O)N[C@@H](CCCCN)C(=O)C(N)=O` [compound 9] as the compound, how does the inhibition at 50 µM read?
The inhibition at 50 µM was at least 25%.

How did the inhibition at 50 µM turn out when `CCCCCCCCCCCCCCCC(=O)N[C@@H](CCCCN)C(=O)N1CCC[C@H]1C(=O)N[C@@H](C)C(=O)N[C@@H](CCCCN)C(=O)C(N)=O` [compound 10] was run?
The inhibition at 50 µM was at least 25%.

Which inhibition at 50 µM does the source give for `CCCCCCCCCCCCCCCC(=O)N[C@H](CCCNC(=N)N)C(=O)N[C@@H](CCC(N)=O)C(=O)N[C@@H](Cc1ccccc1)C(N)=O` [compound 44] (Palmitoyl-[dR]-Gln-Phe-NH2) here?
Its inhibition at 50 µM is at least 25%.

target: human Trypsin (Homo sapiens, UniProt P07477); assay: Selectivity screening, human serine protease trypsin; assay type: biochemical; conditions: at 5 μM; read-out: inhibition of human Trypsin
Method: (§1) By catalytic activity of the protease, the cleaved substrate results in increased fluorescence that can be monitored using a BMG Labtech Fluostar OPTIMA Microtiter fluorescence plate reader (excitation wavelength of 320 nm and a monitored emission wavelength of 405 nm). Dilutions were made starting from 10 mM stock solutions in DMSO and final concentrations were measured in triplicates. The inhibitors were preincubated for 15 min with DENV protease (100 nM) in the assay buffer (50 mM Tris-HCl pH 9.0, ethylene glycol (10% v/v), and 0.0016% Brij 58). The enzymatic reaction was initiated by the addition of the FRET substrate (final concentration 50 μM) to obtain a final assay volume of 100 μL per well. The enzymatic activity was monitored for 15 min and determined as a slope of relative fluorescence units per second (RFU/s) for each concentration. The mean of the triplicates were plotted against the corresponding concentration in CDDVault to determine the IC50-values. Analogous procedures were used to determine the inhibitory potency on WNV (Kühl et al., J. Med. Chem. 2020, 63 (15): 8179-8197) and ZIKA protease (Nitsche et al., ACS Med. Chem. Lett. 2019 Feb. 14; 10 (2): 168-174). For selectivity screening of active candidates, similar biochemical assays with human serine proteases trypsin (Weigel et al., J. Med. Chem. 2015, 58 (19), 7719-7733.) and/or thrombin (Nitsche et al., J. Med. Chem. 2013, 56 (21), 8389-8403) were used.

Which inhibition at 5 µM does the source give for `CCCCCCCCCCCCCCCC(=O)N[C@@H](CCCCN)C(=O)N1CCC[C@H]1C(=O)N[C@@H](C)C(=O)N[C@@H](CCCCN)C(=O)C(N)=O` [compound 10] here?
Its inhibition at 5 µM is under 10%.

How did the inhibition at 5 µM turn out when `CCCCCCCCCCCCCCCC(=O)N[C@H](CCCNC(=N)N)C(=O)N[C@@H](CCC(N)=O)C(=O)N[C@@H](Cc1ccccc1)C(N)=O` [compound 44] (Palmitoyl-[dR]-Gln-Phe-NH2) was run?
The inhibition at 5 µM was under 10%.

same assay, conditions: at 25 μM; read-out: inhibition of human Trypsin

How did the inhibition at 25 µM turn out when `CCCCCCCCCCCCCCCC(=O)N[C@H](CCCNC(=N)N)C(=O)N[C@@H](CCC(N)=O)C(=O)N[C@@H](Cc1ccccc1)C(N)=O` [compound 44] (Palmitoyl-[dR]-Gln-Phe-NH2) was run?
Its inhibition at 25 µM is under 20%.

target: T2, ZIKA protease (Zika virus, UniProt Q32ZE1); assay: biochemical; conditions: not given
T2 construct: a trypsin-like serine protease domain in the N-terminal region of the flaviviral NS3 proteins
Method: as §1

T2 sequence (Q32ZE1 1499-1676): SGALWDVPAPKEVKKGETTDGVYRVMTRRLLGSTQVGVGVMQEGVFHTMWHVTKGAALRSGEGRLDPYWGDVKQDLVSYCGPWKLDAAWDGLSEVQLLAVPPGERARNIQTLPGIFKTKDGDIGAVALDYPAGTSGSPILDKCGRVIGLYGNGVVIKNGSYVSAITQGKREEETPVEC
T2 sequence (Q32ZE1 1421-1460): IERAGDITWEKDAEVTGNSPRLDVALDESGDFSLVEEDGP

How did the IC50 turn out when `CCCCCCCCCCCCCCCC(=O)N[C@@H](CCCCN)C(=O)N[C@@H](C)C(=O)N[C@@H](C)C(=O)N[C@@H](CCCCN)C(=O)C(N)=O` [compound 9] was run?
The IC50 was at most 25 µM.

How did the IC50 turn out when `CCCCCCCCCCCCCCCC(=O)N[C@@H](CCCCN)C(=O)N1CCC[C@H]1C(=O)N[C@@H](C)C(=O)N[C@@H](CCCCN)C(=O)C(N)=O` [compound 10] was run?
The IC50 was at most 25 µM.

With `CCCCCCCCCCCCCCCC(=O)N[C@H](CCCNC(=N)N)C(=O)N[C@@H](CCC(N)=O)C(=O)N[C@@H](Cc1ccccc1)C(N)=O` [compound 44] (Palmitoyl-[dR]-Gln-Phe-NH2) as the compound, how does the IC50 read?
The IC50 was at most 25 µM.

same assay, conditions: at 1 μM; read-out: inhibition of ZIKV

Which inhibition at 1 µM does the source give for `CCCCCCCCCCCCCCCC(=O)N[C@@H](CCCCN)C(=O)N[C@@H](C)C(=O)N[C@@H](C)C(=O)N[C@@H](CCCCN)C(=O)C(N)=O` [compound 9] here?
The inhibition at 1 µM was at least 10%.

How did the inhibition at 1 µM turn out when `CCCCCCCCCCCCCCCC(=O)N[C@H](CCCNC(=N)N)C(=O)N[C@@H](CCC(N)=O)C(=O)N[C@@H](Cc1ccccc1)C(N)=O` [compound 44] (Palmitoyl-[dR]-Gln-Phe-NH2) was run?
The inhibition at 1 µM was at least 10%.

same assay, conditions: at 50 μM; read-out: inhibition of ZIKV

Which inhibition at 50 µM does the source give for `CCCCCCCCCCCCCCCC(=O)N[C@@H](CCCCN)C(=O)N[C@@H](C)C(=O)N[C@@H](C)C(=O)N[C@@H](CCCCN)C(=O)C(N)=O` [compound 9] here?
Its inhibition at 50 µM is at least 65%.

`CCCCCCCCCCCCCCCC(=O)N[C@@H](CCCCN)C(=O)N1CCC[C@H]1C(=O)N[C@@H](C)C(=O)N[C@@H](CCCCN)C(=O)C(N)=O` [compound 10] was tested. Which inhibition at 50 µM did it give?
The inhibition at 50 µM was at least 65%.

Which inhibition at 50 µM does the source give for `CCCCCCCCCCCCCCCC(=O)N[C@H](CCCNC(=N)N)C(=O)N[C@@H](CCC(N)=O)C(=O)N[C@@H](Cc1ccccc1)C(N)=O` [compound 44] (Palmitoyl-[dR]-Gln-Phe-NH2) here?
The inhibition at 50 µM was at least 65%.

target: T3, WNV protease (West Nile virus, UniProt P06935); assay: WNV protease assay (analogous procedure); assay type: biochemical; conditions: at 50 μM
T3 construct: a trypsin-like serine protease domain in the N-terminal region of the flaviviral NS3 proteins
Method: as §1

T3 sequence (P06935 1424-1463): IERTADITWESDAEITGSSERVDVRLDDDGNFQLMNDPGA
T3 sequence (P06935 1502-1679): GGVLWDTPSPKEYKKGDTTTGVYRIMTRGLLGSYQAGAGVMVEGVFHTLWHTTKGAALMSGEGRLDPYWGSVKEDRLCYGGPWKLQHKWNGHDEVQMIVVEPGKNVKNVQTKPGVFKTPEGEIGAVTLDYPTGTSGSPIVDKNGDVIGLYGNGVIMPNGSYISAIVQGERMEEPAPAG

`CCCCCCCCCCCCCCCC(=O)N[C@@H](CCCCN)C(=O)N[C@@H](C)C(=O)N[C@@H](C)C(=O)N[C@@H](CCCCN)C(=O)C(N)=O` [compound 9] was tested. Which inhibition at 50 µM did it give?
Its inhibition at 50 µM is at least 25%.

Which inhibition at 50 µM does the source give for `CCCCCCCCCCCCCCCC(=O)N[C@@H](CCCCN)C(=O)N1CCC[C@H]1C(=O)N[C@@H](C)C(=O)N[C@@H](CCCCN)C(=O)C(N)=O` [compound 10] here?
Its inhibition at 50 µM is at least 25%.

With `CCCCCCCCCCCCCCCC(=O)N[C@H](CCCNC(=N)N)C(=O)N[C@@H](CCC(N)=O)C(=O)N[C@@H](Cc1ccccc1)C(N)=O` [compound 44] (Palmitoyl-[dR]-Gln-Phe-NH2) as the compound, how does the inhibition at 50 µM read?
The inhibition at 50 µM was at least 25%.

target: human Thrombin (Homo sapiens, UniProt P00734); assay: Selectivity screening, human serine protease thrombin; assay type: biochemical; conditions: at 5 μM; read-out: inhibition of human Thrombin
Method: as §1

Which inhibition at 5 µM does the source give for `CCCCCCCCCCCCCCCC(=O)N[C@@H](CCCCN)C(=O)N[C@@H](C)C(=O)N[C@@H](C)C(=O)N[C@@H](CCCCN)C(=O)C(N)=O` [compound 9] here?
Its inhibition at 5 µM is under 5%.

`CCCCCCCCCCCCCCCC(=O)N[C@@H](CCCCN)C(=O)N1CCC[C@H]1C(=O)N[C@@H](C)C(=O)N[C@@H](CCCCN)C(=O)C(N)=O` [compound 10] was tested. Which inhibition at 5 µM did it give?
The inhibition at 5 µM was under 5%.

`CCCCCCCCCCCCCCCC(=O)N[C@H](CCCNC(=N)N)C(=O)N[C@@H](CCC(N)=O)C(=O)N[C@@H](Cc1ccccc1)C(N)=O` [compound 44] (Palmitoyl-[dR]-Gln-Phe-NH2) was tested. Which inhibition at 5 µM did it give?
The inhibition at 5 µM was under 5%.

target: T3, WNV protease; assay: WNV protease assay (analogous procedure); assay type: biochemical; conditions: read-out: IC50 for WNNV

Which IC50 does the source give for `CCCCCCCCCCCCCCCC(=O)N[C@@H](CCCCN)C(=O)N[C@@H](C)C(=O)N[C@@H](C)C(=O)N[C@@H](CCCCN)C(=O)C(N)=O` [compound 9] here?
The IC50 was at most 40 µM.

How did the IC50 turn out when `CCCCCCCCCCCCCCCC(=O)N[C@@H](CCCCN)C(=O)N1CCC[C@H]1C(=O)N[C@@H](C)C(=O)N[C@@H](CCCCN)C(=O)C(N)=O` [compound 10] was run?
Its IC50 is at most 40 µM.

`CCCCCCCCCCCCCCCC(=O)N[C@H](CCCNC(=N)N)C(=O)N[C@@H](CCC(N)=O)C(=O)N[C@@H](Cc1ccccc1)C(N)=O` [compound 44] (Palmitoyl-[dR]-Gln-Phe-NH2) was tested. Which IC50 did it give?
Its IC50 is at most 40 µM.
